Measurements reported in publication PMC2862773 (International journal of biological macromolecules, 2010).
pIC50: −log10 of the molar value. “Also recorded” adds a separate entry of the source.

What was measured:
[1] = system: E. coli enzyme mutants αR283A/Q, αE284A/Q, βS263A/Q, γT273A/Q, γQ274A/K, γT277A/Q, γE278A/Q; test: Inhibition of polyphenol binding pocket mutants of E. coli enzyme; type: biochemical, Escherichia coli; details: unpublished results of the authors
[2] = system: rat brain and liver mitochondrial F1Fo ATP synthase; details: cited from earlier work
[3] = system: androgen-responsive human prostate carcinoma cells (LNCaP); details: concentrations of up to 50μmol/L/day; cited from earlier work
[4] = system: normal human prostate cells; details: at similar concentrations (up to 50μmol/L/day); cited from earlier work
[5] = system: cultured human lymphoblastoid and other mammalian cells; details: not in ρ° cells; cited from earlier work
E. coli ATP synthase = details: cited from earlier work
[6] = molecular target: E. coli ATP synthase (purified F1 or membrane bound F1Fo) (Escherichia coli, UniProt P0ABA6+P0ABB0+P0ABB4); type: biochemical; details: for Residual ATPase Activity (%): left over ATPase activity at maximal inhibition
[7] = system: E. coli strain pBWU13.4/DK8; test: Growth yield in limiting glucose medium in presence of bioflavonoid compounds; type: cell-based, Escherichia coli; details: OD595 after ~20 hours growth at 37 °C; control 100, null 45
[8] = molecular target: E. coli ATP synthase (purified F1 or membrane bound enzyme) (Escherichia coli, UniProt P0ABA6+P0ABB0+P0ABB4); test: Reversal of ATPase inhibition by dilution or centrifuge columns; type: biochemical; details: dilution to non-inhibitory concentration or twice through centrifuge columns
[9] = mitochondrial F1Fo ATP synthase
[10] = purified F1 or membrane bound F1Fo

Structure (SMILES) | Residual ATPase Activity (%) ([6]; 60 min preincubation) | Extent of inhibition of ATPase activity, in words [6, 10] | Growth yield in limiting glucose (%) [7] [%] | also measured
Oc1ccc(/C=C/c2cc(O)cc(O)c2)cc1 [resveratrol] |  |  |  | Inhibition of mutant enzymes [1]: loss of inhibition; Time to inhibition [2, 9]: 1 to 2 min; Effect on apoptosis [3]: stimulation of apoptosis; Effect on rate of cell death [4]: no effect
CC[C@H]1/C=C/C=C/C[C@@H](C)[C@H](O)[C@@](C)(O)C(=O)[C@@H](C)[C@H](O)[C@@H](C)C(=O)[C@@H](C)[C@H](O)[C@@H](C)/C=C/C(=O)O[C@@H]2[C@H](C)[C@H](CC1)O[C@]1(CC[C@H](C)[C@H](C[C@@H](C)O)O1)[C@H]2C [Oligomycin] |  |  |  | Time to apoptotic suicide response [5]: 12 to 18 h
O=c1c(O)c(-c2ccc(O)c(O)c2)oc2cc(O)cc(O)c12 [Quercetin] |  |  |  | Inhibition of mutant enzymes [1]: loss of inhibition; pIC50 (E. coli ATP synthase; E. coli ATP synthase): ~4.48; Reversibility of inhibition (E. coli ATP synthase; binds non-covalently at the polyphenol binding site): reversible; Inhibition of E. coli ATP synthase (E. coli ATP synthase): ~ 80%; pIC50 [2, 9]: 4.19 to 4.26
NC12CC3CC(CC(C3)C1)C2 [Amantadin, reference compound] | 0 | complete inhibition | 51 | Inhibition of ATPase activity (maximal extent) ([6]; purified F1 or membrane bound F1Fo, 60 min preincubation): ~ 100%
Oc1cc(O)c2c(c1)O[C@H](c1ccc(O)c(O)c1)[C@H](O)C2 [(−)-Epicatechin] | 0 | complete inhibition | 53 | 
O=c1c(-c2ccc(O)cc2)coc2cc(O[C@@H]3O[C@H](CO)[C@@H](O)[C@H](O)[C@H]3O)cc(O)c12 [genistin] |  |  |  | Inhibition of ATPase activity ([2]; up to 140 μM): did not inhibit
O=c1c(-c2ccc(O)cc2)coc2cc(O)ccc12 [Daidzein] |  | insignificant | 96 | 
O=c1c(O)c(-c2ccc(O)cc2O)oc2cc(O)cc(O)c12 [Morin hydrate] | 0 | complete inhibition | 46 | 
COc1ccc(-c2cc(=O)c3c(O)cc(O[C@@H]4O[C@H](CO[C@@H]5O[C@@H](C)[C@H](O)[C@@H](O)[C@H]5O)[C@@H](O)[C@H](O)[C@H]4O)cc3o2)cc1O [Diosmin] |  | partial inhibition |  | 
O=c1cc(-c2ccccc2)oc2cc(O)c(O)c(O)c12 [Baicalein] | 0 | complete inhibition | 48 | 
O=c1cc(-c2ccccc2)oc2cc(O)cc(O)c12 [Chrysin] | 40 |  | 73 | 
O=c1cc(-c2ccc(O)c(O)c2)oc2cc(O)cc(O)c12 [Luteolin] |  | insignificant | 87 | 
Oc1cc(O)cc(/C=C/c2ccc(O)c(O)c2)c1 [piceatannol] |  |  |  | Inhibition of mutant enzymes [1]: loss of inhibition
O=c1cc(-c2ccc(O)cc2)oc2cc(O)cc(O)c12 [Apigenin] | 60 |  |  | Reversibility of inhibition [8]: reversible; pIC50 [2, 9]: ~4.00
COc1ccc([C@@H]2CC(=O)c3c(O)cc(O[C@@H]4O[C@H](CO[C@@H]5O[C@@H](C)[C@H](O)[C@@H](O)[C@H]5O)[C@@H](O)[C@H](O)[C@H]4O)cc3O2)cc1O [Hesperidin] | 40 | partial inhibition | 76 | 
COc1cc(C2Oc3cc([C@H]4Oc5cc(O)cc(O)c5C(=O)[C@@H]4O)ccc3OC2CO)ccc1O (stereo partly drawn) [Silibinin] | 0 | complete inhibition | 47 | 
CC(N)C12CC3CC(CC(C3)C1)C2 (stereo not drawn) [Rimantadine, reference compound] | 0 | complete inhibition | 52 | 
C[C@@H]1O[C@@H](OC[C@H]2O[C@@H](Oc3c(-c4ccc(O)c(O)c4)oc4cc(O)cc(O)c4c3=O)[C@H](O)[C@@H](O)[C@@H]2O)[C@H](O)[C@H](O)[C@H]1O [Rutin hydrate] |  |  | 87 | 
O=c1c(O)c(-c2ccccc2)oc2cc(O)cc(O)c12 [Galangin] |  | insignificant; also recorded: no inhibition | 93 | 
O=c1c(-c2ccc(O)cc2)coc2cc(O)cc(O)c12 [Genistein] |  |  | 87 | 
